# Laboratory results taken from patent US8580308B2, “Modafinil pharmaceutical compositions” (Cephalon, Inc., priority 2002, dated 2013).
# Legend:
# density of modafinil = type: physicochemical
# Description: Although primarily described herein with respect to “cumulative total number of particles,” it is within the ability of one skilled in the art to also make blends based upon weight of the portions used from each of the discrete lots, as detailed above. In particular, the density of modafinil is about 0.50 grams per cubic centimeter (bulk density) and about 0.60 grams per cubic centimeter (tap density). Using the density information, the statistical information that is described herein, and assuming the particles of modafinil are spherical, accurate determinations of the appropriate weight of particles in each discrete lot can be made. Similar calculations can be made with respect to the surface area of the particles.
# [1] = mice, single administration; cited from earlier work
# [2] = monkeys, single administration; cited from earlier work
# [3] = humans; cited from earlier work
compound,measurement,setting,value
"NC(=O)C[S+]([O-])C(c1ccccc1)c1ccccc1 (centres unmarked) [modafinil, 2-(benzhydrylsulfinyl)acetamide]",bulk density,density of modafinil,about 0.50 grams per cubic centimeter
same,tap density,density of modafinil,about 0.60 grams per cubic centimeter
same,locomotor activity,[1],increased locomotor activity
same,nocturnal activity,[2],increased nocturnal activity
same,treatment of idiopathic hypersomnia and narcolepsy,[3],successfully tested
